For test [1], the target named is Alkaline phosphatase, tissue-nonspecific isozyme (Homo sapiens, UniProt P05186).
Test [2] deals with Voltage-gated N-type calcium channel alpha-1B subunit/Amyloid beta A4 precursor protein-binding family A member 1 (Homo sapiens, UniProt Q00975+Q02410). It is filed as protein assay.
A further test concerns the target T1, Insulin-degrading enzyme (Homo sapiens, UniProt P14735).
T1 sequence (P14735 whole entry): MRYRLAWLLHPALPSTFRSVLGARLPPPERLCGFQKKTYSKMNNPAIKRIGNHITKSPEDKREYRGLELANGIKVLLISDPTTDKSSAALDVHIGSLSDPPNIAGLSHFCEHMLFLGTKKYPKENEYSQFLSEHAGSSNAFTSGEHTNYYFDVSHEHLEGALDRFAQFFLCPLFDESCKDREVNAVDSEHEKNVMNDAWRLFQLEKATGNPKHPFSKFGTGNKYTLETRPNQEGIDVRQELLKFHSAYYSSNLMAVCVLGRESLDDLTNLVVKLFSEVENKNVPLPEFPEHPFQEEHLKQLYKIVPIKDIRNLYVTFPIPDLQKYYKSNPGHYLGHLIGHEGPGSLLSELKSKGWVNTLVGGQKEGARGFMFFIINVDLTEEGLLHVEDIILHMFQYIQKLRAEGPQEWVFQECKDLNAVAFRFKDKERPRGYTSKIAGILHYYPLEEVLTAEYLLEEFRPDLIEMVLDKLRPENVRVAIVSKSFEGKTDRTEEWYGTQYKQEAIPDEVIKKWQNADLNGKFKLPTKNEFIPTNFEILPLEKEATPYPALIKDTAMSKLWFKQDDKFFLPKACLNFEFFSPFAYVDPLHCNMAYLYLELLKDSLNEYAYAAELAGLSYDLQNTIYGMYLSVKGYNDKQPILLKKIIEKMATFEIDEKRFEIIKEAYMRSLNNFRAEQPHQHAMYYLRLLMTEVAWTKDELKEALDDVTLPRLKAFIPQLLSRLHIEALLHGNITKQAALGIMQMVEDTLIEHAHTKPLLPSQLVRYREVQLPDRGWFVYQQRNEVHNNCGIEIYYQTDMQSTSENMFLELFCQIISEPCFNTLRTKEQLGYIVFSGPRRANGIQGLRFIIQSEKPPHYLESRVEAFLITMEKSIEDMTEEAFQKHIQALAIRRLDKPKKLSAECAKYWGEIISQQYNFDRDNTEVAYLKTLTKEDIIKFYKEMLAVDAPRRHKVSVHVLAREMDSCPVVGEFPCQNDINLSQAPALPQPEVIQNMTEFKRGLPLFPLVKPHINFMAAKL
In words: activators of endogenous IDE in HEK cells, dose response, cell-based, fluorescence polarization (AID 588439). The class given is functional. Background: In fluorescence polarisation assays a small probe gives low polarisation when free and higher when bound to something large.

A further test has as its target SUMO E1/E2 (Homo sapiens, UniProt P63279+Q9UBE0+Q9UBT2). The experiment in a line: SAR analysis of SUMOylation using HTRF in an in-Vitro dose response assay. [Related pubchem assays (depositor defined):AID2006, AID2011, AID2018, AID2069, AID2658]. It is filed as functional. A general note: In TR-FRET formats the signal depends on donor and acceptor labels being close together.

In another test the target is T2, Caspase-3 (Homo sapiens, UniProt P42574).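 Further: Dose-response selectivity test against caspase-3 for candidate inhibitors of sentrin-specific proteases (SENPs).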
T2 sequence (P42574 whole entry): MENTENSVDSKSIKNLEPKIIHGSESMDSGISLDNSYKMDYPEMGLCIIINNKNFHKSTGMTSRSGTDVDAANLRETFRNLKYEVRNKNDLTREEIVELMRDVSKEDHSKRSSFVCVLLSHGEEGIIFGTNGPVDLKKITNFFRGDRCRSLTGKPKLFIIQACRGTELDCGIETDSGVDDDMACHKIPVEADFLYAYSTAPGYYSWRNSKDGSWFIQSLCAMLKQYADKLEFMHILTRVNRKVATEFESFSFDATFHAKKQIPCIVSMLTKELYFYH
It is filed as functional.

The target of the next test is T3, Cysteine protease ATG4B (Homo sapiens, UniProt Q9Y4P1).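 Further: Fluorescence-based dose-response confirmation assay measuring inhibition of ATG4B activity.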
T3 sequence (Q9Y4P1 whole entry): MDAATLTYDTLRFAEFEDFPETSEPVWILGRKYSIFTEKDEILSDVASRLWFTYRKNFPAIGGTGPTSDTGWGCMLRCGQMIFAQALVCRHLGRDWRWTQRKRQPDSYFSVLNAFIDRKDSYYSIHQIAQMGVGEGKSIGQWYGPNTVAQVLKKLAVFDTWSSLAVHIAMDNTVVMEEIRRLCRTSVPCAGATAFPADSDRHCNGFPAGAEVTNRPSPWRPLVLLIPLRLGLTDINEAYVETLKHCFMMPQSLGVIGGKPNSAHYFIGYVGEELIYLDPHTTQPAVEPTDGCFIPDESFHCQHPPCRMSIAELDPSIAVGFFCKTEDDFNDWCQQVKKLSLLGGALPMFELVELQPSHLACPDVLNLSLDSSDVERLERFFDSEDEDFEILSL
The class given is functional.

For test [3], the target named is Serine/threonine-protein phosphatase PP1-alpha catalytic subunit (Homo sapiens, UniProt P62136). The experiment in a line: PP1 phosphatase inhibitors, dose response, biochemical, fluorescence (AID 2394).
Test [4] addresses Protein-tyrosine kinase 2-beta (Homo sapiens, UniProt Q14289).
Test [5] is described as follows: cytotoxicity toward NIH3T3 fibroblasts, dose response, counter-screen, cell-based, ATP luminescence, mouse fibroblasts (AID 2010).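 Further: cells exposed to compound for about 90 hours before reading.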 It is filed as functional. On the technique in general: The purpose of a counterscreen is to sort out artefacts and off-target activity.
A further test relates to INS1. The experiment in a line: beta cell apoptosis inhibitors, cytokine rescue, dose response, luminescence, retest (AID 449756).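 Further: cell death triggered by IL-1 beta plus TNF-alpha plus IFN-gamma mixture; protective hits raise ATP signal compared with cytokine alone wells.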 The class given is functional, cell-based. The settings on record: Rattus norvegicus.
Test [6] addresses Delta-type opioid receptor (Homo sapiens, UniProt P41143). The experiment in a line: Counterscreen for agonists of heterodimerization of the mu 1 (OPRM1) and delta 1 (OPRD1) opioid receptors: Luminescence-based cell-based high throughput dose response assay to identify agonists of OPRD1 homodimerization. [Related pubchem assays (depositor defined):AID504326, AID504355, AID504692, AID504904, AID504905]. The class given is functional.

Another test has as its target T4, CAAX prenyl protease 2 (Saccharomyces cerevisiae S288c, UniProt Q03530).
T4 sequence (Q03530 whole entry): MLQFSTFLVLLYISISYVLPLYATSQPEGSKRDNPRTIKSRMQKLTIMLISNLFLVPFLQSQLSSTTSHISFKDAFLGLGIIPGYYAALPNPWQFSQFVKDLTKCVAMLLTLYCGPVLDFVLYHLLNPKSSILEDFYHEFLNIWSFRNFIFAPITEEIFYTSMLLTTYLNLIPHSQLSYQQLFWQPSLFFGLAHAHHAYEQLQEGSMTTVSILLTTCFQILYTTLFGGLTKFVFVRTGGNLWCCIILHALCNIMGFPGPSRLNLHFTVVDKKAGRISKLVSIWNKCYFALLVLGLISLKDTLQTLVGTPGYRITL
The class given is biochemical.

The target in test [7] is T5, Ubiquitin-conjugating enzyme E2 N (Homo sapiens, UniProt P61088).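 Further: Dose-response confirmation in a TR-FRET assay detecting UBC13-driven polyubiquitin chain formation, inhibition measured.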
T5 sequence (P61088 whole entry): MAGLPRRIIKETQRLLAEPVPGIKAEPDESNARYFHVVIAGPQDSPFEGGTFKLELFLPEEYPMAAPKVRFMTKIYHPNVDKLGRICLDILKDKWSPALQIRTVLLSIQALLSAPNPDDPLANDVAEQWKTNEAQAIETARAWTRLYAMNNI
The class given is functional.

Calls of active or inactive are those of the source.

Voltage-gated N-type calcium channel alpha-1B subunit/Amyloid beta A4 precursor protein-binding family A member 1, sequence (Q00975 whole entry): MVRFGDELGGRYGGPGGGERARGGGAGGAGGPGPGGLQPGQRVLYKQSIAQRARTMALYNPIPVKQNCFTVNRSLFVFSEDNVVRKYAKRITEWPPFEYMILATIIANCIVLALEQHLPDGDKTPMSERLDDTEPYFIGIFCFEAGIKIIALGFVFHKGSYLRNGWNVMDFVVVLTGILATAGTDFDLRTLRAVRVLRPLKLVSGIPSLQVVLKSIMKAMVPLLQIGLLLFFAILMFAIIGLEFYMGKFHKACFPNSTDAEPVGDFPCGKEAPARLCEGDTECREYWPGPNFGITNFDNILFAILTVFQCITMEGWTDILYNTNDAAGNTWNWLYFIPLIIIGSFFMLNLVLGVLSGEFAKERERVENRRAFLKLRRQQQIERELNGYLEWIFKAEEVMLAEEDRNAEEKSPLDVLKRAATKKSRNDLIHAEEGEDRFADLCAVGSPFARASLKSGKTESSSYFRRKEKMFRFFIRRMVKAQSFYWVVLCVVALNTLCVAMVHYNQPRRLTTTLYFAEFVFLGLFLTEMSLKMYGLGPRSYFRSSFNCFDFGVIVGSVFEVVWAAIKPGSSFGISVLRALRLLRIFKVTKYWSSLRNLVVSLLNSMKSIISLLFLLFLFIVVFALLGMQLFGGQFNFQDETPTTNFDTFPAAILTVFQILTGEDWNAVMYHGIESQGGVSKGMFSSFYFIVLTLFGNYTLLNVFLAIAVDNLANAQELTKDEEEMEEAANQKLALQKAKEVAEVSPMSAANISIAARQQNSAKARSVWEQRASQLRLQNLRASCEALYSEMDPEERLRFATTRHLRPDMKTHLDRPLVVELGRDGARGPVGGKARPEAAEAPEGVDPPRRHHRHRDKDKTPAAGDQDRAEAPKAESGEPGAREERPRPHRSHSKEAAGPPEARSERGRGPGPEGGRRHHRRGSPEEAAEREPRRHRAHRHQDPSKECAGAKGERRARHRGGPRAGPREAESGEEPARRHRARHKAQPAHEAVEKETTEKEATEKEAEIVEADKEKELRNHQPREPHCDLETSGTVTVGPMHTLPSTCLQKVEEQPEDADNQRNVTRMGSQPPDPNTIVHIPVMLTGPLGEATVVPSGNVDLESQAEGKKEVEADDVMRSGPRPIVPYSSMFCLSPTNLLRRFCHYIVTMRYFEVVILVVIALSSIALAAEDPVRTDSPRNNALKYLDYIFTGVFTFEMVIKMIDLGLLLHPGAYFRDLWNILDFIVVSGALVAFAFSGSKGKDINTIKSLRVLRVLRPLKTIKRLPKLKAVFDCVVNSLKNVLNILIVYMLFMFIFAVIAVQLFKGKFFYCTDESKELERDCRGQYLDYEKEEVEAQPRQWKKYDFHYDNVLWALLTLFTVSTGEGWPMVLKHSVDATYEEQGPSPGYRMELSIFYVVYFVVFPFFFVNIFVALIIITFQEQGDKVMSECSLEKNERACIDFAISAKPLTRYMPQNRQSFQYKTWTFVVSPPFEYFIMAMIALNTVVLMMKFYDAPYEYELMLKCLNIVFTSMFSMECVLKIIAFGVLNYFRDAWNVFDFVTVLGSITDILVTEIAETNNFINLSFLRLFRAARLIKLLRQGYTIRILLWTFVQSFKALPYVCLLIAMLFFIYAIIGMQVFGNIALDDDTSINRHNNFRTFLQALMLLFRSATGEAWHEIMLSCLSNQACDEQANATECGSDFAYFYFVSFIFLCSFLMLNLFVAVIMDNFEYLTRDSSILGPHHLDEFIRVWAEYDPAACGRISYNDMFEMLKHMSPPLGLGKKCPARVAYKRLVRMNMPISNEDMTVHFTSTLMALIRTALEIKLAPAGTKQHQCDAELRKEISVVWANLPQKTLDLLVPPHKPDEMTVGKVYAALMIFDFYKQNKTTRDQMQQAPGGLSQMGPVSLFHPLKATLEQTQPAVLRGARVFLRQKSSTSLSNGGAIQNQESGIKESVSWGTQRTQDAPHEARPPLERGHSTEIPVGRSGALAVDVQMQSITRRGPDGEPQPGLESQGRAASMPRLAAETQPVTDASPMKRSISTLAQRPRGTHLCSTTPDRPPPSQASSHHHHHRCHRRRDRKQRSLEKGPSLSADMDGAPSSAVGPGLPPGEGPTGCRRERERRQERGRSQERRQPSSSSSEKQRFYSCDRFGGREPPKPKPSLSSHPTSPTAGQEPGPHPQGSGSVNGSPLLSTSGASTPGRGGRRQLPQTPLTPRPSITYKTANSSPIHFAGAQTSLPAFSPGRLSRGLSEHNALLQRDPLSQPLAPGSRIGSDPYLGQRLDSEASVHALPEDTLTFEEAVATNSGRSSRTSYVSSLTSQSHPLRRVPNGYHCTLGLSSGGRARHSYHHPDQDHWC
Voltage-gated N-type calcium channel alpha-1B subunit/Amyloid beta A4 precursor protein-binding family A member 1, sequence (Q02410 whole entry): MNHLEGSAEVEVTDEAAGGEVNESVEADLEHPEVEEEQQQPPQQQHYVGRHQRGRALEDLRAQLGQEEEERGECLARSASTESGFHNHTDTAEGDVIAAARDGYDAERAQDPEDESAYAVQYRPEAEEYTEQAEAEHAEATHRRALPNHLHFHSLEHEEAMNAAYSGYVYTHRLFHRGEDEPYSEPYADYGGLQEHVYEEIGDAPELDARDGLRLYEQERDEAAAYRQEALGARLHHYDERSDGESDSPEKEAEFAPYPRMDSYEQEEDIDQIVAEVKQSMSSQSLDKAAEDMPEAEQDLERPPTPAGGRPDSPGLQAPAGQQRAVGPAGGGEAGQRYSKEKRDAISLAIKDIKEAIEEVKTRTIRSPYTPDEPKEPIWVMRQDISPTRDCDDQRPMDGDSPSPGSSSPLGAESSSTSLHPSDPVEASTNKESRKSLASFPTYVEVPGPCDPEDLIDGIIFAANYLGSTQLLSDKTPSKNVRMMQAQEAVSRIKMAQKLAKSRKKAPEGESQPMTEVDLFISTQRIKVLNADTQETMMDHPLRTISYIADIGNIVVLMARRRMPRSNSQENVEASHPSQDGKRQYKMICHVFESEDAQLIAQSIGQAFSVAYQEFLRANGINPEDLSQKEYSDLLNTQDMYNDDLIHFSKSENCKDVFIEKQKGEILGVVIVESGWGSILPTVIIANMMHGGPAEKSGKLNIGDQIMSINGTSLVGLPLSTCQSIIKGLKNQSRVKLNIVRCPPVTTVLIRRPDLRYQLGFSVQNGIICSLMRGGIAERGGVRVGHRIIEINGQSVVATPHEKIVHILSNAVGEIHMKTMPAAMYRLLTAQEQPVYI
Serine/threonine-protein phosphatase PP1-alpha catalytic subunit, sequence (P62136 whole entry): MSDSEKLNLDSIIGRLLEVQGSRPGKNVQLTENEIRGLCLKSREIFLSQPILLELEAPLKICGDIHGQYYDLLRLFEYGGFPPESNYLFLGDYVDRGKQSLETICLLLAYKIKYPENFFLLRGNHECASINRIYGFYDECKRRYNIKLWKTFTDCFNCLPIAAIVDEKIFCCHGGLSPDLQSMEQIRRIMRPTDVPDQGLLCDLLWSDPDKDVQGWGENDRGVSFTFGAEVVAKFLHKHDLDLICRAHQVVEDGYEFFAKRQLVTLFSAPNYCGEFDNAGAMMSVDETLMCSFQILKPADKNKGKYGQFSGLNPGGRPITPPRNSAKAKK
Delta-type opioid receptor, sequence (P41143 whole entry): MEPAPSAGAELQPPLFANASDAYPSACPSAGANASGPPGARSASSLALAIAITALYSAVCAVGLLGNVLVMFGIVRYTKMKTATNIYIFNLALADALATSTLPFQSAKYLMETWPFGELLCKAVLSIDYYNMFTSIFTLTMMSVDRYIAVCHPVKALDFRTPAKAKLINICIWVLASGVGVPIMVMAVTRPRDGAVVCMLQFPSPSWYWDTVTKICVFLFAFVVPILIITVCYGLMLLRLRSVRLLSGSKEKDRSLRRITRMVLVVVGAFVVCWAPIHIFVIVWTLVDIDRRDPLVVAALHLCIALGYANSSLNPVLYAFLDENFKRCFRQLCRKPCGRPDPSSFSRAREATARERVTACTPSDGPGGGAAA
Protein-tyrosine kinase 2-beta, sequence (Q14289 whole entry): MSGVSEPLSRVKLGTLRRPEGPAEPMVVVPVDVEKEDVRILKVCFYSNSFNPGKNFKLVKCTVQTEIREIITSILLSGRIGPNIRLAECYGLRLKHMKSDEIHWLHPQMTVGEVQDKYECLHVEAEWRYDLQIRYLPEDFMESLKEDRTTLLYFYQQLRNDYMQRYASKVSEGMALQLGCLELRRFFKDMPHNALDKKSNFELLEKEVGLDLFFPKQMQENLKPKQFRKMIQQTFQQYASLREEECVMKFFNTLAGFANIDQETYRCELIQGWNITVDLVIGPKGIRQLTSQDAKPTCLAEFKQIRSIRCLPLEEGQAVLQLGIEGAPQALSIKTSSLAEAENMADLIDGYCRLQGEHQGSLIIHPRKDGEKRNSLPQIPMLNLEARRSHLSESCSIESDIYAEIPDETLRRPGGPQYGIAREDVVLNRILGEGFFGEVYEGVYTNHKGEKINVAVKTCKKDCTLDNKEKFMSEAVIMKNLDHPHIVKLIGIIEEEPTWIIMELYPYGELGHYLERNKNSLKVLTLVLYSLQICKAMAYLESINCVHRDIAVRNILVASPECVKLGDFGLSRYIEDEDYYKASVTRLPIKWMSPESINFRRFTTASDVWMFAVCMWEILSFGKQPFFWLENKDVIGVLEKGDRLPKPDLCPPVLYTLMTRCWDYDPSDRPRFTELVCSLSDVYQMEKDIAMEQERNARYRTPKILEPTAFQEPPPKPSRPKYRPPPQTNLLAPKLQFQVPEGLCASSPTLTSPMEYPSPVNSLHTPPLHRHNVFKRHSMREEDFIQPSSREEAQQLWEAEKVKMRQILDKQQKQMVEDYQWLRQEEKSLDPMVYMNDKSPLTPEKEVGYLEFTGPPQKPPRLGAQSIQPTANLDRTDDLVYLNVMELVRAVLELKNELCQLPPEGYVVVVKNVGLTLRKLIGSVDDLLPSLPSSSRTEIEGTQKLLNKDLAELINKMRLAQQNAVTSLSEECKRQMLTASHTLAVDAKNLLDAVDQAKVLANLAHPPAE

With `COc1cc(OC)c(-c2c3cc(O)c(=O)cc-3oc3cc(O)c(O)cc23)cc1OC`, the results for the EC50 (in test [1]; on Insulin-degrading enzyme) were > 100 µM (not active) and > 54.7 µM (inactive), respectively. Moreover, in test [2], the IC50 is > 50 µM (inactive).
As for `Oc1nc(Nc2ccccc2)cc2ccccc12`, the IC50 at SUMO E1/E2 is 6.32 µM (active); on Caspase-3, 1.02 µM (active); on Cysteine protease ATG4B it was 9.22 µM (active); in test [3], > 67 µM (not active); in test [4] it was > 69.5 µM (not active).
`CCCCCCCCCCOC(=O)C[n+]1c(COc2ccccc2C)n(C)c2ccccc21`: the values for the EC50 in [5] and in test [6] were > 60 µM (not active) and > 92.5 µM (inactive), respectively. Moreover, the results for the AC50 in the test on INS1 and at CAAX prenyl protease 2 were 2.16 µM (active) and 8.72 µM (active), respectively. Moreover, in [7], the IC50 was > 20 µM (inactive).

The EC50 is the concentration at which the effect is half-maximal. By IC50 is commonly meant the midpoint of a concentration-inhibition curve. A word on the AC50: it is the midpoint of the concentration-response curve, whichever way the signal moves.

These data come from ChEMBL document CHEMBL1201862, “PubChem BioAssay data set” (2004).
